# What was measured:
# [1] = tested on: primary human coronary artery smooth muscle cells (PC-100-021); assay: Long-term culture with low-speed imaging in presence of low molecular weight compound; assay type: cell-based; conditions: FIG. 1C
# HCM cells [2] = assay: Quantitative RT-PCR of progenitor, maturation and senescence markers; assay type: cell-based, human; conditions: for number of cell death due to the treatment: concluded from senescence markers
# Procedure: (§1) The subcultured human cardiomyocytes were seeded at 0.5×10^2 cells/cm^2 on a 35 mm plate (IWAKI) containing: 3 mL of a Vascular Smooth Muscle Cell growth medium containing 3-(6-methyl-2-pyridinyl)-n-phenyl-4-(4-quinolinyl)-1H-pyrazole-1-carbothioamide (A-83-01: A) (final concentration: 1 AM) as a low molecular weight compound TGFβ receptor inhibitor or (1R,4r)-4-((R)-1-aminoethyl)-N-(pyridin-4-yl)cyclohexanecarboxamide (Y-27632: Y) (final concentration: 10 AM) as a ROCK inhibitor, both of the compounds A-83-01 and Y-27632, or free of them: or a Myocyte basal medium. On Day 3, the Vascular Smooth Muscle Cell growth medium containing each low molecular weight compound or the Myocyte basal medium was replaced. Thereafter, the medium was replaced in the same manner every three days.
# (§2) Total RNA was isolated from each cardiomyocyte 1 month and 2 months after culture in the presence of the test low molecular weight compound using miRNeasy Mini Kit (QIAGEN). Reverse transcription reactions were performed using High-Capacity cDNA Reverse Transcription Kit Lifetechnologies according to manufacturer's guidelines. PCR was performed using the obtained cDNA as a template and a Taqman Probe (ThermoFisher). An expression level of a target gene was standardized with β-actin as an endogenous control.
# PC-100-021 cells [3] = assay: as above; assay type: cell-based, human; conditions: for number of cell death due to the treatment: concluded from senescence markers
# Procedure: as §1, §2
# [4] = tested on: primary human cardiomyocytes (HCM); assay: Long-term culture with low-speed imaging of cardiomyocytes in presence of low molecular weight compound; assay type: cell-based; conditions: for long-term culture (proliferation): HCM, FIG. 1B; for cell morphology of cardiomyocytes: long-term culture, FIG. 1A
# Procedure: as §1
# After the medium replacement, low-speed imaging was performed using a BZ9000 all-in-one fluorescence microscope (KEYENCE). In addition, the individual cells were tracked throughout the imaging period (110 days), and the final number of cells derived from each cell was measured.
# HCM cells [5] = assay: Western blot of endothelial cell marker (CD31) and muscle cell marker (Troponin T); assay type: cell-based, human; conditions: FIG. 3B
# Description: (§3) FIG. 3 A: Graphs showing mRNA expression of the myocardial progenitor cell markers (GATA4 and VCAM-1), the maturation marker (MYL2), and senescence markers (CDKN1A and CDKN2A) for cardiomyocytes, in the cardiomyocytes treated with the TGFβ receptor inhibitor (A) or the ROCK inhibitor (Y). In each graph, the vertical axis represents the expression amount (Relative mRNA expression) of each mRNA when the expression amount of the cells before culture is 1, and the numerical values on the horizontal axis represent culture periods (day). B: Photographs showing the results of confirming, by Western blot, loss of the expression of an endothelial cell marker (CD31), and expression of a muscle cell marker (Troponin T) and Actin, in primary human cardiomyocytes (HCM) or primary human coronary artery smooth muscle cells (PC-100-021) treated with the TGFβ receptor inhibitor (A) or the ROCK inhibitor (Y). NT indicates an agent-untreated control, and HUVEC indicates a result of using human umbilical vein endothelial cells (CD31-positive as the endothelial cell marker).
# PC-100-021 cells [6] = assay: as above; assay type: cell-based, human; conditions: FIG. 3B
# Description: as §3
# [7] = 1 and 2 months culture, vs agent untreated group, FIG. 2
# [8] = culture periods in days, FIG. 3A
SMILES,long-term culture (proliferation) [1],decrease in progenitor cell markers (GATA4 and VCAM-1) mRNA during culture (HCM cells [2]; [7]),increase in maturation marker (MYL2) mRNA during culture (HCM cells [2]; [7]),expression of senescence markers (CDKN1A and CDKN2A) mRNA (HCM cells [2]; FIG. 3A),number of cell death due to the treatment (HCM cells [2]),increase in maturation marker (MYL2) mRNA during culture (HCM cells [2]; [8]),decrease in progenitor cell markers (GATA4 and VCAM-1) mRNA during culture (PC-100-021 cells [3]; [7]),increase in maturation marker (MYL2) mRNA during culture (PC-100-021 cells [3]; [7]),expression of senescence markers (CDKN1A and CDKN2A) mRNA (PC-100-021 cells [3]; FIG. 3A),number of cell death due to the treatment (PC-100-021 cells [3]),increase in maturation marker (MYL2) mRNA during culture (PC-100-021 cells [3]; [8]),long-term culture (proliferation) [4],cell morphology of cardiomyocytes [4],expression of endothelial cell marker (CD31) (HCM cells [5]),expression of muscle cell marker (HCM cells [5]),expression of endothelial cell marker (CD31) (PC-100-021 cells [6]),expression of muscle cell marker (PC-100-021 cells [6]),decrease in progenitor cell markers (GATA4 and VCAM-1) mRNA during culture (HCM cells [2]; [8]),decrease in progenitor cell markers (GATA4 and VCAM-1) mRNA during culture (PC-100-021 cells [3]; [8])
"Cc1cccc(-c2nn(C(=S)Nc3ccccc3)cc2-c2ccnc3ccccc23)n1 [A-83-01, 3-(6-methyl-2-pyridinyl)-n-phenyl-4-(4-quinolinyl)-1H-pyrazole-1-carbothioamide]",long-term culture was induced,promoted,promoted,hardly expressed,small,promote,promoted,promoted,hardly expressed,small,promote,long-term culture was induced,maintained the original cell morphology,not expressed,expressed,not expressed,expressed,–,–
"C[C@@H](N)[C@H]1CC[C@H](C(=O)Nc2ccncc2)CC1 [Y-27632, (1R,4r)-4-((R)-1-aminoethyl)-N-(pyridin-4-yl)cyclohexanecarboxamide]",–,suppressed,suppressed,hardly expressed,small,suppressed,suppressed,suppressed,hardly expressed,small,suppressed,long-term culture was induced,maintained the original cell morphology,not expressed,expressed,not expressed,expressed,suppressed,suppressed

# From US20230374462A1, “METHOD FOR PRODUCING MYOCARDIAL STEM/PROGENITOR CELL AND METHOD FOR SUPPRESSING MYOCARDIAL FIBROSIS” (priority 2020, published 2023)
